The values below come from patent US20250312365A1, “METHODS FOR INHIBITION OF SQUAMOUS CARCINOMA CELLS USING CERAMIDE MODULATORS” (The Trustees of Indiana University, priority 2024, published 2025).

“Also recorded” adds a separate entry of the source.

Test [1] deals with human gingival squamous carcinoma cells (OECM1). The test is described as follows: Cell viability/proliferation assay (WST-1) in OECM1 cells. In kind it is cell-based. To be noted: each tested concentration (0.1 μg/ml and 1 μg/ml); WST-1. The text has this: In specific examples, colorimetric assays can be used to assess cellular viability and proliferation of cell cultures, such as MTT, WST-1, and resazurin assays. See, e.g., Präbst et al., Methods Mol Biol. 2017:1601:1-17.
Various cell lines were exposed to PGDHC, including human gingival squamous carcinoma cells (OECM1), tongue squamous carcinoma cells (SCC4, SCC9), and healthy human gingival epithelial control cells (OBA9) in vitro.
(§1) To elucidate the effects of C16:0 and dh-C16:0 on oral squamous cell carcinoma, the ability of exogenous C16:0 and dh-C16:0 to modulate proliferation and ceramidase expression in OECM1 cells was determined. […] In contrast, no effect of C16:0 on ASAH1 and ACER2 mRNA expressions.
LCL521 is a dose-dependent acid ceramidase inhibitor. Comparison of the concentration-dependent effects of an acid ceramidase inhibitor, LCL521 (MedChemExpress®), and the bacterial-isolated a15:0-15:0PE phospholipid on the viability of healthy human epithelial, OBA9, and oral squamous cancer cell lines, OECM1 and SCC9, in vitro was evaluated. […] (FIG. 15A). […] (FIG. 15B).
(In general: Formazan colour is commonly taken as a measure of viable cells.)

For a further test, the system named is ADAM17. Briefly: ADAM17 mRNA expression in OECM1 cells. The class given is cell-based, human. The following applies: in combination with S1P. How it is done: (§2) NF-kB, MMP-2, ADAM-17, and IL6 are implicated in the degradation of the expression of genes involved in the cell basement membrane and extracellular matrix of oral squamous cell carcinoma. Accordingly, the expression of NFkB, MMP2, ADAM17, and IL6 in OECM1 cells following exposure to 0.1 μg/ml PGDHC and 1 μg/ml PGDHC was determined.
(§3) Sphingosine-1-phosphate (S1P) sphingolipid plays an essential role in the survival, migration, and degradation of the basement membrane and extracellular matrix of oral squamous cell carcinoma (Yura et al., Cancers (Basel). 2020 August; 12(8): 2062). To determine whether PGDHC can inhibit such properties, the combined effects of PGDHC and S1P on OECM1 gene expression was tested in vitro.

For another test, the system named is IL6. The test is described as follows: IL6 mRNA expression in OECM1 cells. The class given is cell-based, human. The protocol:
as §2, §3

In the next test the test system is ASAH1. The test is described as follows: ASAH1 (acid ceramidase) mRNA expression in OECM1 cells. In kind it is cell-based, human. To be noted: 0.1 or 1 μg/ml of PGDHC.
Text: (§4) Exemplary ceramidase genes, the expression of which can be measured to determine upregulation, include but are not limited to ASAH1, ACER2, and ACER3. A determination of ceramidase gene expression can be made according to methods available to one of skill in the art. For example, Yamada et al., J Cell Mol Med. 2023 May;27(9):1290-1295 and Kyriakou et al., Int. J. Mol. Sci. 2020, 21(5):1607 describes measuring the mRNA levels of ceramidases by RNA extraction and RT-PCR.
(§5) To test this hypothesis, it was first determined whether artificially elevated intracellular concentration of ceramide species affect the expression of acid/ASAH1, neutral/ASAH2, and alkaline1-3/ACER1-3 ceramidases in oral squamous cell carcinoma cells using C6-ceramide. Applicant previously reported that C6-ceramide serves as a positive control for PGDHC-mediated inflammation (Kanzaki et al., Biochim Biophys Acta Mol Cell Biol Lipids. 2017 May;1862(5):452-462) and promotes the intracellular accumulation of ceramide in cancer cells. See, e.g., Zhang et al., Front Plant Sci. 2020 Feb. 26:11:145, Zhai et al., Biochem Biophys Res Commun. 2015 December;468(1-2):274-80, Wilhelm et al., Cancers (Basel). 2021 Jan. 13;13(2):270, and Chapman et al., Biochem Pharmacol. 2010 Aug. 1;80(3):308-15.
(§6) Next, the effect of PGDHC on ceramidase gene expression was determined. OECM1 and SCC4 cells were exposed to 0.1 or 1 μg/ml of PGDHC. The mRNA levels of ceramidases were then measured following PGDHC exposure. PGDHC inhibited the expression of ASAH1 and ACER2 mRNAs in OECM1 (FIG. 8). […] See, e.g., Vijayan et al., J Adv Res. 2023 Dec. 21:S2090-1232(23)00403-4, Doan et al., Oncotarget. 2017 Nov. 7;8(68):112662-112674., Lai et al., Sci Rep. 2021 May 27;11(1):11221, Liu et al., Cancer Sci. 2020 July;111(7):2259-2274., and Liu et al., Front Genet. 2023 Mar. 1:14:1148437.
as §1
We evaluated the effect of a15:0-i15:0 phosphoethanolamine phospholipid (FIG. 1D), isolated from the gut bacteria Akkermansia muciniphila on OSCC cells.

For the next test, the system named is ACER2. The test is described as follows: ACER2 mRNA expression in OECM1 cells. In kind it is cell-based, human. The following applies: 0.1 or 1 μg/ml of PGDHC.
Text: as §4, §5, §6, §1

Test [2] relates to ceramide and dihydroceramide in OECM1 cells. The test is described as follows: Intracellular ceramide and dihydroceramide by mass-spectrometry in OECM1 cells. The class given is cell-based, human. An excerpt:
Cellular levels of ceramides and dihydroceramides, and cellular accumulation or increase thereof, can be determined according to known methods, such as mass spectrometry. For example, Scherer et al., J Lipid Res. 2010 July; 51(7): 2001-2011 and Smeden et al., J Lipid Res. 2011 June; 52(6):1211-1221 describe LC/MS/MS methods for determining ceramide levels in cells.
To assess intracellular ceramide levels, the concentration of ceramide and dihydroceramide in OECM1 cells exposed to PGDHC was measured using mass-spectrometry. […] No effect of 0.1 μg/ml of PGDHC on ceramide and dh-ceramide concentrations in OECM1 cells was observed. (FIG. 10C)

The subject of test [3] is healthy oral epithelial cells. Briefly: ASAH1 expression and dihydroceramide accumulation in healthy oral epithelial cells. The class given is cell-based. To be noted: preliminary findings. The text has this:
Applicant performed in vitro studies to determine the effect of PEDHC and PGDHC on the proliferation of oral cancer cells via downregulation of acid ceramidase, thereby contributing to the accumulation of intracellular ceramides. […] Furthermore, PGDHC diminished metabolites in at least five different cell survival metabolomic pathways in OSCC cells but not in healthy cells. The metabolomic pathways included folate metabolism, arginine and proline metabolism, triacylglycerol biosynthesis de novo, mitochondrial election transport chain, and glycine and serine metabolism. […] In contrast to current approaches for undermining the viability of oral squamous cell carcinoma and treating OSCC, the present disclosure relates in some aspects to methods and compositions for selectively interfering with any of the growth, viability, proliferation, migration, and metastasis of oral squamous cell carcinoma.

On to phosphoglycerol dihydroceramide [PGDHC], for which the “viability of OECM1 cells” value in test [1] was “significantly inhibited”. In addition, the “ADAM17 mRNA levels in OECM1 cells exposed to S1P” value in the test with ADAM17 is given as “a significant effect was not observed”. In addition, the “expression of IL6 mRNA in OECM1 cells” value with IL6 (1 μg/ml) was “significantly inhibited”. The “expression of IL6 mRNA in OECM1 cells exposed to S1P” value in the test with IL6 (in combination with S1P) is “significantly inhibited”. Also, the “expression of ASAH1 mRNA in OECM1” value with ASAH1 is on record as “inhibits; also recorded: dramatically inhibited”. Further, the “expression of ACER2 mRNA in OECM1” value in the test on ACER2 is on record as “inhibited”. Also, in test [2] (0.1 μg/ml), the “ceramide and dh-ceramide concentrations in OECM1 cells” value is reported as “No effect”. In test [2] (1 μg/ml, OECM1 cells), the “intracellular concentration of ceramide C20:0, C26:0 and C26:1” value is recorded as “significantly elevated”; the “intracellular concentration of dihydroceramide dhC14:0, dhC16:0, dhC18:0, dhC20:0, dhC20:1, dhC22:1, dhC22:0, dhC24:1, dhC24:0, dhC26:1” value was “significantly elevated”. In test [2] (1 μg/ml, OECM1 cells, compared to ceramides), the “total intracellular concentration of dihydroceramides” value is listed as “significantly elevated; also recorded: led to the accumulation”. Further, in test [2] (OECM1 cells), the “accumulation of C16:0 dihydroceramide (dh-C16:0)” value is on record as “promotes the accumulation”. Further, in test [3], the “inhibition of ASAH1 expression and accumulation of dihydroceramide in healthy oral epithelial cells” value was “not observed”.
